According to PubChem BioAssay AID330 (DTP/NCI, 2004):
Where “and” joins values, the source holds several entries; their conditions need not be identical. Equal values may be shown once. Inconclusive results and toxic doses are left out. The calls were made as follows: active = survival T/C of 150% or more; inactive = T/C below 125% in these data.

System: P388 leukemia ip, CD2F1 mice, survival T/C
Test: NCI In Vivo Anticancer Drug Screen. Data for tumor model P388 Leukemia (intraperitoneal) in CD2F1 (CDF1) mice
Settings: endpoint: median survival time, higher = longer survival
Summary of the method: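 Mice carrying the transplanted tumor received test compound or vehicle. Survival was recorded in each group, and the value is the treated-group measurement divided by that of the vehicle-treated control group.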

[1] = dose: 50.0 mg/kg/injection, schedule: Q01DX009 (ip), vehicle: saline
[2] = dose: 30.0 mg/kg/injection, schedule: Q01DX005 (ip), vehicle: saline with Tween-80
[3] = dose: 60.0 mg/kg/injection, schedule: Q01DX005 (ip), vehicle: saline with Tween-80
[4] = dose: 15.0 mg/kg/injection, schedule: Q01DX005 (ip), vehicle: Klucel (hydroxypropylcellulose) (HPC)
[5] = dose: 30.0 mg/kg/injection, schedule: Q01DX005 (ip), vehicle: Klucel (hydroxypropylcellulose) (HPC)
[6] = dose: 25.0 mg/kg/injection, schedule: Q01DX009 (ip), vehicle: saline with Tween-80
[7] = dose: 50.0 mg/kg/injection, schedule: Q01DX009 (ip), vehicle: saline with Tween-80
[8] = dose: 50.0 mg/kg/injection, schedule: Q01DX009 (ip), vehicle: Klucel (hydroxypropylcellulose) (HPC)
[9] = dose: 100.0 mg/kg/injection, schedule: Q01DX009 (ip), vehicle: Klucel (hydroxypropylcellulose) (HPC)
[10] = dose: 200.0 mg/kg/injection, schedule: Q01DX009 (ip), vehicle: Klucel (hydroxypropylcellulose) (HPC)
[11] = dose: 50.0 mg/kg/injection, schedule: Q01DX005 (ip), vehicle: Klucel (hydroxypropylcellulose) (HPC)
[12] = dose: 120.0 mg/kg/injection, schedule: Q01DX005 (ip), vehicle: saline with Tween-80
[13] = dose: 240.0 mg/kg/injection, schedule: Q01DX005 (ip), vehicle: saline with Tween-80
[14] = dose: 3.13 mg/kg/injection, schedule: Q01DX009 (ip), vehicle: saline with Tween-80
[15] = dose: 6.25 mg/kg/injection, schedule: Q01DX009 (ip), vehicle: saline with Tween-80
[16] = dose: 100.0 mg/kg/injection, schedule: Q04DX002 (ip), vehicle: Klucel (hydroxypropylcellulose) (HPC)
[17] = dose: 200.0 mg/kg/injection, schedule: Q04DX002 (ip), vehicle: Klucel (hydroxypropylcellulose) (HPC)
[18] = dose: 12.5 mg/kg/injection, schedule: Q01DX009 (ip), vehicle: saline with Tween-80

Measured: T/C

CCN(CC)CCCNc1cccc2c(C)cc(OC)nc12
inactive: dose: 12.5 mg/kg/injection, schedule: Q01DX009 (ip), vehicle: saline 92 % of control | dose: 25.0 mg/kg/injection, schedule: Q01DX009 (ip), vehicle: saline 90 % of control | [1] 86 % of control

Cc1cc(N)n2c(nc3ccccc32)c1C#N
inactive: dose: 15.0 mg/kg/injection, schedule: Q01DX005 (ip), vehicle: saline with Tween-80 102 % of control | [2] 100 % of control | [3] 93 % of control and 97 % of control

Cc1nc2cc(N(C)C)ccc2c(Cl)c1C(N)=O
inactive: [4] 100 % of control | [5] 99 % of control | dose: 60.0 mg/kg/injection, schedule: Q01DX005 (ip), vehicle: Klucel (hydroxypropylcellulose) (HPC) 100 % of control and 96 % of control

CCOS(=O)(=O)CC(C)C(C)C (configuration not stated)
inactive: dose: 50.0 mg/kg/injection, schedule: Q01DX005 (ip), vehicle: saline with Tween-80 98 % of control | dose: 100.0 mg/kg/injection, schedule: Q01DX005 (ip), vehicle: saline with Tween-80 104 % of control | dose: 200.0 mg/kg/injection, schedule: Q01DX005 (ip), vehicle: saline with Tween-80 101 % of control

O=[N+]([O-])c1ccc(N2CCCC2)c([N+](=O)[O-])c1
inactive: [6] 100 % of control | [7] 104 % of control | dose: 100.0 mg/kg/injection, schedule: Q01DX009 (ip), vehicle: saline with Tween-80 100 % of control | dose: 200.0 mg/kg/injection, schedule: Q01DX009 (ip), vehicle: saline with Tween-80 100 % of control

O=C(/C=C/C1N=C1c1ccccc1)c1ccccc1 (configuration not stated)
inactive: dose: 25.0 mg/kg/injection, schedule: Q01DX001 (ip), vehicle: Klucel (hydroxypropylcellulose) (HPC) 100 % of control | dose: 50.0 mg/kg/injection, schedule: Q01DX001 (ip), vehicle: Klucel (hydroxypropylcellulose) (HPC) 107 % of control | dose: 100.0 mg/kg/injection, schedule: Q01DX001 (ip), vehicle: Klucel (hydroxypropylcellulose) (HPC) 106 % of control and 107 % of control

CC(=O)OC1C=CN(C(C)=O)C(SC(C)(C)C)C1(C)O (configuration not stated)
inactive: [8] 101 % of control and 119 % of control | [9] 107 % of control and 112 % of control | [10] 113 % of control and 120 % of control | dose: 400.0 mg/kg/injection, schedule: Q01DX009 (ip), vehicle: Klucel (hydroxypropylcellulose) (HPC) 110 % of control

NC(=Nc1ccccc1)SCCCCCCSC(N)=Nc1ccccc1
inactive: dose: 25.0 mg/kg/injection, schedule: Q01DX009 (ip), vehicle: Klucel (hydroxypropylcellulose) (HPC) 100 % of control | [8] 102 % of control | [9] 100 % of control

COc1cccc([B-]23OCC[N+]2(CNC(=O)C2=C(O)C4(O)C(=O)C5=C(O)c6c(O)cccc6C(C)(O)C5CC4C(N(C)C)C2=O)CCO3)c1 (configuration not stated)
inactive: [11] 110 % of control | dose: 100.0 mg/kg/injection, schedule: Q01DX005 (ip), vehicle: Klucel (hydroxypropylcellulose) (HPC) 105 % of control | dose: 200.0 mg/kg/injection, schedule: Q01DX005 (ip), vehicle: Klucel (hydroxypropylcellulose) (HPC) 115 % of control

OCC12CCCC(CO)(COC1)C2O (configuration not stated)
inactive: dose: 25.0 mg/kg/injection, schedule: Q01DX005 (ip), vehicle: saline 105 % of control | dose: 50.0 mg/kg/injection, schedule: Q01DX005 (ip), vehicle: saline 105 % of control | dose: 100.0 mg/kg/injection, schedule: Q01DX005 (ip), vehicle: saline 100 % of control | dose: 200.0 mg/kg/injection, schedule: Q01DX005 (ip), vehicle: saline 115 % of control

Cc1onc(-c2c(F)cccc2Cl)c1C(=O)Oc1ccccc1
inactive: [2] 100 % of control | [3] 100 % of control | [12] 103 % of control | [13] 99 % of control

CCCCCCCCCC(C)CC(=O)NCCCN(C)CCCCN(C)C (configuration not stated) (tested in a mixture with another compound)
inactive: dose: 0.78 mg/kg/injection, schedule: Q01DX009 (ip), vehicle: saline with Tween-80 91 % of control | dose: 1.56 mg/kg/injection, schedule: Q01DX009 (ip), vehicle: saline with Tween-80 94 % of control | [14] 97 % of control | [15] 100 % of control

O=c1oc(-c2ccccc2)nc2c1sc1nc(-c3ccccc3)oc(=O)c12
inactive: dose: 1.56 mg/kg/injection, schedule: Q01DX005 (ip), vehicle: Klucel (hydroxypropylcellulose) (HPC) 93 % of control | dose: 3.12 mg/kg/injection, schedule: Q01DX005 (ip), vehicle: Klucel (hydroxypropylcellulose) (HPC) 101 % of control and 91 % of control and 96 % of control | dose: 6.25 mg/kg/injection, schedule: Q01DX005 (ip), vehicle: Klucel (hydroxypropylcellulose) (HPC) 87 % of control and 88 % of control and 89 % of control | [11] 88 % of control and 92 % of control

COc1cccc2c1C(=O)c1c(O)c3c(c(O)c1C2=O)CC(O)(C(=O)COC1CC(OC(C)=O)C(OC(C)=O)C(C)O1)CC3OC1CC(OC(C)=O)C(OC(C)=O)C(C)O1 (configuration not stated)
inactive: dose: 3.13 mg/kg/injection, schedule: Q04DX003 (ip), vehicle: saline with Tween-80 100 % of control | dose: 6.25 mg/kg/injection, schedule: Q04DX003 (ip), vehicle: saline with Tween-80 100 % of control | dose: 12.5 mg/kg/injection, schedule: Q04DX003 (ip), vehicle: saline with Tween-80 100 % of control | dose: 25.0 mg/kg/injection, schedule: Q04DX003 (ip), vehicle: saline with Tween-80 95 % of control | dose: 50.0 mg/kg/injection, schedule: Q04DX003 (ip), vehicle: saline with Tween-80 100 % of control

CC(/C=C/c1ccccc1)=N\NC(N)=O
inactive: [1] 105 % of control | dose: 100.0 mg/kg/injection, schedule: Q01DX009 (ip), vehicle: saline 115 % of control | dose: 200.0 mg/kg/injection, schedule: Q01DX009 (ip), vehicle: saline 118 % of control

Nc1cc2ccccc2c(Br)n1
inactive: dose: 100.0 mg/kg/injection, schedule: Q01DX001 (ip), vehicle: saline with Tween-80 100 % of control | dose: 200.0 mg/kg/injection, schedule: Q01DX001 (ip), vehicle: saline with Tween-80 95 % of control | dose: 400.0 mg/kg/injection, schedule: Q01DX001 (ip), vehicle: saline with Tween-80 100 % of control

CCN(CC)Cc1cc(N=Nc2ccc(-c3ccc(N)c(OC)c3)cc2OC)c2ccccc2c1O
inactive: [8] 92 % of control | [9] 99 % of control | [10] 93 % of control

COc1ccc(C(=O)N2CC(O)=CC2=O)cc1
inactive: [8] 105 % of control | [9] 107 % of control | [10] 92 % of control

O=C1CCC2=C1C(c1ccccc1)C1=C(CCC1=O)O2
inactive: [16] 100 % of control | [17] 100 % of control | dose: 400.0 mg/kg/injection, schedule: Q04DX002 (ip), vehicle: Klucel (hydroxypropylcellulose) (HPC) 111 % of control

O=C1CSC(c2ccc(Cl)cc2)N1c1nncs1 (configuration not stated)
inactive: [3] 101 % of control | [12] 102 % of control | [13] 108 % of control

CSc1nc(SC)c2nc(SC)n(-c3ccccc3)c2n1
inactive: [14] 102 % of control | [15] 104 % of control | [18] 101 % of control | [6] 97 % of control

CCOC(=O)C1C(O)CC2c3ccccc3-c3ccccc3C21 (configuration not stated)
inactive: [3] 87 % of control | [12] 87 % of control

O=S1(=O)Cc2c3c(c4c(c2C1)CS(=O)(=O)C4)CS(=O)(=O)C3
inactive: dose: 50.0 mg/kg/injection, schedule: Q04DX002 (ip), vehicle: Klucel (hydroxypropylcellulose) (HPC) 94 % of control | [16] 96 % of control | [17] 98 % of control

O=C1CC2C(C1Nc1ccccc1)C1C(=Nc3ccccc3)C(Nc3ccccc3)=CC1N2c1ccccc1 (configuration not stated)
inactive: dose: 7.5 mg/kg/injection, schedule: Q01DX005 (ip), vehicle: Klucel (hydroxypropylcellulose) (HPC) 100 % of control | [4] 97 % of control | [5] 95 % of control

Cc1cc(Cl)ccc1OCC1OC(=O)C(C)(C)O1 (configuration not stated)
inactive: [8] 100 % of control | [9] 100 % of control | [10] 101 % of control

NC(N)=NC(N)=Nc1c(F)c(F)c(F)c(F)c1F
inactive: [15] 107 % of control | [18] 100 % of control | [6] 101 % of control and 113 % of control | [7] 116 % of control
